The text below walks through data of patent US20250129031A1, “1,2,3-TRIAZOLE CARBONYL SULFONYLAMIDE COMPOUNDS AND USE THEREOF” (PI INDUSTRIES LTD., priority 2022, published 2025).

Molecules are shown by their SMILES.

The assay has as its system Meloidogyne incognita. In words: Meloidogyne incognita test: gall rating on cucumber plants in pots after soil application. It is filed as in vivo. The note with it: 1000 ppm applied to soil inoculated with 5000 eggs & J2s; cucumber seedlings; rated 30 days after application; 0-10 scale (Zeck 1971); untreated check up to 8. More on the design: key: 0: no galls; 1: very few small galls; 2: numerous small galls; 3: numerous small galls of which some are grown together; 4: numerous small and some big galls; 25% of roots severely galled; 6: 50% of roots severely galled; 75% of roots severely galled; 8: no healthy roots but plant is still green; 9: roots rotting and plant dying; 10: plant and roots dead. As to the method: Meloidogyne incognita Test:
The trial pots were filled with soil containing a mixture of sand:soil:cocopeat in a ratio of 1:1:1. To the soil of each pot 5 mL of a nematode suspension (Meloidogyne incognita, mix of 5000 eggs & J2s) was added. One hour later the respective test compound at the stated concentration was applied to each pot. 10 days old cucumber seedlings were transplanted into the pots one day after the application. The cucumber plants were allowed to grow at a temperature of 27° C. under greenhouse conditions. The evaluation of the gall rating was recorded 30 days after the application. The plants were carefully uprooted and the roots were thoroughly washed. The gall rating was done on a 0-10 scale as described by Zeck (1971) and shown below: • 0=no galls • 1=very few small galls • 2=numerous small galls • 3=numerous small galls of which some are grown together • 4=numerous small and some big galls • 5=25% of roots severely galled • 6=50% of roots severely galled • 7=75% of roots severely galled • 8=no healthy roots but plant is still green • 9=roots rotting and plant dying • 10=plant and roots dead
For `Cc1c(C(=O)NS(=O)(=O)c2ccccc2Cl)nnn1-c1ccc(C#N)cc1Cl` [Compound 272], the gall rating scale was found to be 4.

In turn, `Cc1c(C(=O)NS(=O)(=O)c2ccccc2F)nnn1-c1ccc(Cl)cc1Cl` [Compound 278, 1-(2,4-dichlorophenyl)-N-((2-fluorophenyl)sulfonyl)-5-methyl-1H-1,2,3-triazole-4-carboxamide] yielded a gall rating scale of 4.

The compound `Cc1c(C(=O)NS(=O)(=O)c2ccc(F)cc2F)nnn1-c1ccc(Cl)cc1Cl` [Compound 279, 1-(2,4-dichlorophenyl)-N-((2,4-difluorophenyl)sulfonyl)-5-methyl-1H-1,2,3-triazole-4-carboxamide] had a gall rating scale of 4.

As for `Cc1cc(S(=O)(=O)NC(=O)c2nnn(-c3ccc(Cl)cc3Cl)c2C)c(C)cc1Cl` [Compound 280, N-((4-chloro-2,5-dimethylphenyl)sulfonyl)-1-(2,4-dichlorophenyl)-5-methyl-1H-1,2,3-triazole-4-carboxamide], the gall rating scale was determined as 4.

`Cc1c(C(=O)NS(=O)(=O)c2c(F)cc(F)cc2F)nnn1-c1ccc(Cl)cc1Cl` [Compound 281, 1-(2,4-dichlorophenyl)-5-methyl-N-((2,4,6-trifluorophenyl)sulfonyl)-1H-1,2,3-triazole-4-carboxamide] gave a gall rating scale of 4.

Compound `CCc1c(C(=O)NS(=O)(=O)c2cc(C(F)(F)F)ccc2Cl)nnn1-c1ccc(OC(F)(F)F)cc1Cl` [Compound 311, 1-(2-chloro-4-(trifluoromethoxy)phenyl)-N-((2-chloro-5-(trifluoromethyl)phenyl)sulfonyl)-5-ethyl-1H-1,2,3-triazole-4-carboxamide] displayed a gall rating scale of 4.

Consider `Cc1c(C(=O)NS(=O)(=O)c2cc(C(F)(F)F)ccc2Cl)nnn1-c1ccc(C#N)cc1Cl` [Compound 315], for which the gall rating scale came out at 4.

In turn, `Cc1c(C(=O)NS(=O)(=O)c2cc(Cl)ccc2Cl)nnn1-c1ccc(C#N)cc1Cl` [Compound 316, 1-(2-chloro-4-cyanophenyl)-N-((2,5-dichlorophenyl)sulfonyl)-5-methyl-1H-1,2,3-triazole-4-carboxamide] displayed a gall rating scale of 4.

Compound `Cc1ccc(C)c(S(=O)(=O)NC(=O)c2nnn(-c3ccc(C#N)cc3Cl)c2C)c1` [Compound 328] had a gall rating scale of 4.

`O=C(NS(=O)(=O)c1ccccc1C(F)(F)F)c1nnn(-c2cc(Cl)ccc2Cl)c1C(F)(F)F` [Compound 335, 1-(2,5-dichlorophenyl)-5-(trifluoromethyl)-N-((2-(trifluoromethyl)phenyl)sulfonyl)-1H-1,2,3-triazole-4-carboxamide] gave a gall rating scale of 4.

`CCc1c(C(=O)NS(=O)(=O)c2cc(OC)ccc2Cl)nnn1-c1ccc(OC(F)(F)F)cc1Cl` [Compound 336, 1-(2-chloro-4-(trifluoromethoxy)phenyl)-N-((2-chloro-5-methoxyphenyl)sulfonyl)-5-ethyl-1H-1,2,3-triazole-4-carboxamide] came in with a gall rating scale of 4.

`CCc1c(C(=O)NS(=O)(=O)c2cc(C)ccc2C)nnn1-c1ccc(OC(F)(F)F)cc1Cl` [Compound 337, 1-(2-chloro-4-(trifluoromethoxy)phenyl)-N-((2,5-dimethylphenyl)sulfonyl)-5-ethyl-1H-1,2,3-triazole-4-carboxamide] displayed a gall rating scale of 4.

Compound `CCc1c(C(=O)NS(=O)(=O)c2ccccc2Cl)nnn1-c1ccc(OC(F)(F)F)cc1Cl` [Compound 338, 1-(2-chloro-4-(trifluoromethoxy)phenyl)-N-((2-chlorophenyl)sulfonyl)-5-ethyl-1H-1,2,3-triazole-4-carboxamide] returned a gall rating scale of 4.

With `CCc1c(C(=O)NS(=O)(=O)c2ccccc2F)nnn1-c1ccc(OC(F)(F)F)cc1Cl` [Compound 339, 1-(2-chloro-4-(trifluoromethoxy)phenyl)-5-ethyl-N-((2-fluorophenyl)sulfonyl)-1H-1,2,3-triazole-4-carboxamide], the gall rating scale amounted to 4.

In turn, `O=C(NS(=O)(=O)c1cc(C(F)(F)F)ccc1Cl)c1nnn(-c2ccc(F)cc2Cl)c1C(F)(F)F` [Compound 364, 1-(2-chloro-4-fluorophenyl)-N-((2-chloro-5-(trifluoromethyl)phenyl)sulfonyl)-5-(trifluoromethyl)-1H-1,2,3-triazole-4-carboxamide] returned a gall rating scale of 4.

Compound `O=C(NS(=O)(=O)c1ccccc1OC(F)(F)F)c1nnn(-c2cc(Cl)ccc2Cl)c1C(F)(F)F` [Compound 370, 1-(2,5-dichlorophenyl)-N-((2-(trifluoromethoxy)phenyl)sulfonyl)-5-(trifluoromethyl)-1H-1,2,3-triazole-4-carboxamide] returned a gall rating scale of 4.

With `O=C(NS(=O)(=O)c1cc(Cl)ccc1Cl)c1nnn(-c2cc(Cl)ccc2Cl)c1C(F)(F)F` [Compound 371, 1-(2,5-dichlorophenyl)-N-((2,5-dichlorophenyl)sulfonyl)-5-(trifluoromethyl)-1H-1,2,3-triazole-4-carboxamide], the gall rating scale is reported as 4.

For the compound `CCc1c(C(=O)NS(=O)(=O)c2ccccc2F)nnn1-c1ccc(F)cc1Cl` [Compound 378, 1-(2-chloro-4-fluorophenyl)-5-ethyl-N-((2-fluorophenyl)sulfonyl)-1H-1,2,3-triazole-4-carboxamide], the gall rating scale was determined as 4.

In the case of `Cc1ccc(C)c(S(=O)(=O)NC(=O)c2nnn(-c3ccc(C#N)cc3Cl)c2C(F)(F)F)c1` [Compound 389, 1-(2-chloro-4-cyanophenyl)-N-((2,5-dimethylphenyl)sulfonyl)-5-(trifluoromethyl)-1H-1,2,3-triazole-4-carboxamide], the gall rating scale is reported as 4.

Turning to `N#Cc1ccc(-n2nnc(C(=O)NS(=O)(=O)c3cc(C(F)(F)F)ccc3C(F)(F)F)c2C(F)(F)F)c(Cl)c1` [Compound 390, N-((2,5-bis(trifluoromethyl)phenyl)sulfonyl)-1-(2-chloro-4-cyanophenyl)-5-(trifluoromethyl)-1H-1,2,3-triazole-4-carboxamide], the gall rating scale came out at 4.

In the case of `N#Cc1ccc(-n2nnc(C(=O)NS(=O)(=O)c3ccccc3C(F)(F)F)c2C(F)(F)F)c(Cl)c1` [Compound 394, 1-(2-chloro-4-cyanophenyl)-5-(trifluoromethyl)-N-((2-(trifluoromethyl)phenyl)sulfonyl)-1H-1,2,3-triazole-4-carboxamide], the gall rating scale came to 4.

In turn, `N#Cc1ccc(-n2nnc(C(=O)NS(=O)(=O)c3ccccc3OC(F)(F)F)c2C(F)(F)F)c(Cl)c1` [Compound 395, 1-(2-chloro-4-cyanophenyl)-N-((2-(trifluoromethoxy)phenyl)sulfonyl)-5-(trifluoromethyl)-1H-1,2,3-triazole-4-carboxamide] came in with a gall rating scale of 4.

The compound `Cc1ccccc1S(=O)(=O)NC(=O)c1nnn(-c2ccc(C#N)cc2Cl)c1C(F)(F)F` [Compound 396, 1-(2-chloro-4-cyanophenyl)-N-(o-tolylsulfonyl)-5-(trifluoromethyl)-1H-1,2,3-triazole-4-carboxamide] registered a gall rating scale of 4.

As to `Cc1c(C(=O)NS(=O)(=O)c2cc(Cl)ccc2Cl)nnn1-c1ccc(C#N)cc1F` [Compound 410], the gall rating scale turned out to be 4.

For the compound `Cc1c(C(=O)NS(=O)(=O)c2ccc(F)cc2F)nnn1-c1ccc(C#N)cc1F` [Compound 413], the gall rating scale was found to be 4.

As to `Cc1c(C(=O)NS(=O)(=O)c2ccccc2F)nnn1-c1ccc(C#N)cc1F` [Compound 415], the gall rating scale is 4.
